Patent publication US20040266623A1, “SYNERGISTIC QUINCLORAC HERBICIDAL COMPOSITIONS” (priority 2003, published 2004)

Experiments:
crabgrass = test: Greenhouse pot test, postemergent spray, visual control rating converted to percent control; type: in vivo
Procedure, shortened: (§1)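 Plants were rated visually at 24 HAT through 21 DAT on a 1 (none) to 9 (death) scale, later expressed as percent control. Treatment was a postemergent greenhouse pot spray delivering 43.46 gallons/acre onto plants in soilless media. Two- and three-way mixtures were judged for synergy against Colby-expected values.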

plantain = test: as above; type: in vivo
Procedure, shortened: as §1

O=C(O)c1c(Cl)ccc2cc(Cl)cnc12 [Quinclorac, 3,7-dichloro-8-quinolinecarboxylic acid]
% Control Crabgrass (crabgrass; Test 1, 7 DAT, 0.18 lbs/A): 44.4% | Control (1-9) Crabgrass (crabgrass; Test 1, 7 DAT, 0.18 lbs/A): 4 | % Control Crabgrass (crabgrass; Test 1, 7 DAT, 0.375 lbs/A): 44.4% | Control (1-9) Crabgrass (crabgrass; Test 1, 7 DAT, 0.375 lbs/A): 4 | % Control Crabgrass (crabgrass; Test 1, 7 DAT, 0.75 lbs/A): 44.4% | Control (1-9) Crabgrass (crabgrass; Test 1, 7 DAT, 0.75 lbs/A): 4 | % Control Crabgrass (crabgrass; Test 1, 14 DAT, 0.18 lbs/A): 77.8% | Control (1-9) Crabgrass (crabgrass; Test 1, 14 DAT, 0.18 lbs/A): 7 | % Control Crabgrass (crabgrass; Test 1, 14 DAT, 0.375 lbs/A): 55.6% | Control (1-9) Crabgrass (crabgrass; Test 1, 14 DAT, 0.375 lbs/A): 5 | % Control Crabgrass (crabgrass; Test 1, 14 DAT, 0.75 lbs/A): 55.6% | Control (1-9) Crabgrass (crabgrass; Test 1, 14 DAT, 0.75 lbs/A): 5 | % Control Crabgrass (crabgrass; Test 1, 24 HAT, 0.18 lbs/A): 22.2% | Control (1-9) Crabgrass (crabgrass; Test 1, 24 HAT, 0.18 lbs/A): 2 | % Control Crabgrass (crabgrass; Test 1, 24 HAT, 0.375 lbs/A): 22.2% | Control (1-9) Crabgrass (crabgrass; Test 1, 24 HAT, 0.375 lbs/A): 2 | % Control Crabgrass (crabgrass; Test 1, 24 HAT, 0.75 lbs/A): 22.2% | Control (1-9) Crabgrass (crabgrass; Test 1, 24 HAT, 0.75 lbs/A): 2 | % Control Crabgrass (crabgrass; Test 1, 48 HAT, 0.18 lbs/A): 33.3% | Control (1-9) Crabgrass (crabgrass; Test 1, 48 HAT, 0.18 lbs/A): 3 | % Control Crabgrass (crabgrass; Test 1, 48 HAT, 0.375 lbs/A): 44.4% | Control (1-9) Crabgrass (crabgrass; Test 1, 48 HAT, 0.375 lbs/A): 4 | % Control Crabgrass (crabgrass; Test 1, 48 HAT, 0.75 lbs/A): 44.4% | Control (1-9) Crabgrass (crabgrass; Test 1, 48 HAT, 0.75 lbs/A): 4 | % Control Crabgrass (crabgrass; Test 2, 7 DAT, 0.18 lbs/A): 33.3% | Control (1-9) Crabgrass (crabgrass; Test 2, 7 DAT, 0.18 lbs/A): 3 | % Control Crabgrass (crabgrass; Test 2, 7 DAT, 0.375 lbs/A): 77.8% | Control (1-9) Crabgrass (crabgrass; Test 2, 7 DAT, 0.375 lbs/A): 7 | % Control Crabgrass (crabgrass; Test 2, 7 DAT, 0.75 lbs/A): 77.8% | Control (1-9) Crabgrass (crabgrass; Test 2, 7 DAT, 0.75 lbs/A): 7 | % Control Crabgrass (crabgrass; Test 2, 14 DAT, 0.18 lbs/A): 55.6% | Control (1-9) Crabgrass (crabgrass; Test 2, 14 DAT, 0.18 lbs/A): 5 | % Control Crabgrass (crabgrass; Test 2, 14 DAT, 0.375 lbs/A): 77.8% | Control (1-9) Crabgrass (crabgrass; Test 2, 14 DAT, 0.375 lbs/A): 7 | % Control Crabgrass (crabgrass; Test 2, 14 DAT, 0.75 lbs/A): 88.9% | Control (1-9) Crabgrass (crabgrass; Test 2, 14 DAT, 0.75 lbs/A): 8 | % Control Crabgrass (crabgrass; Test 2, 24 HAT, 0.18 lbs/A): 33.3% | Control (1-9) Crabgrass (crabgrass; Test 2, 24 HAT, 0.18 lbs/A): 3 | % Control Crabgrass (crabgrass; Test 2, 24 HAT, 0.375 lbs/A): 22.2% | Control (1-9) Crabgrass (crabgrass; Test 2, 24 HAT, 0.375 lbs/A): 2 | % Control Crabgrass (crabgrass; Test 2, 24 HAT, 0.75 lbs/A): 22.2% | Control (1-9) Crabgrass (crabgrass; Test 2, 24 HAT, 0.75 lbs/A): 2 | % Control Crabgrass (crabgrass; Test 2, 72 HAT, 0.18 lbs/A): 44.4% | Control (1-9) Crabgrass (crabgrass; Test 2, 72 HAT, 0.18 lbs/A): 4 | % Control Crabgrass (crabgrass; Test 2, 72 HAT, 0.375 lbs/A): 33.3% | Control (1-9) Crabgrass (crabgrass; Test 2, 72 HAT, 0.375 lbs/A): 3 | % Control Crabgrass (crabgrass; Test 2, 72 HAT, 0.75 lbs/A): 44.4% | Control (1-9) Crabgrass (crabgrass; Test 2, 72 HAT, 0.75 lbs/A): 4 | % Control Crabgrass (crabgrass; Test 4, 7 DAT, 0.18 lbs/A): 11.1% | Control (1-9) Crabgrass (crabgrass; Test 4, 7 DAT, 0.18 lbs/A): 1 | % Control Crabgrass (crabgrass; Test 4, 7 DAT, 0.375 lbs/A): 22.2% | Control (1-9) Crabgrass (crabgrass; Test 4, 7 DAT, 0.375 lbs/A): 2 | % Control Crabgrass (crabgrass; Test 4, 7 DAT, 0.75 lbs/A): 22.2% | Control (1-9) Crabgrass (crabgrass; Test 4, 7 DAT, 0.75 lbs/A): 2 | % Control Crabgrass (crabgrass; Test 4, 14 DAT, 0.18 lbs/A): 22.2% | Control (1-9) Crabgrass (crabgrass; Test 4, 14 DAT, 0.18 lbs/A): 2 | % Control Crabgrass (crabgrass; Test 4, 14 DAT, 0.375 lbs/A): 33.3% | Control (1-9) Crabgrass (crabgrass; Test 4, 14 DAT, 0.375 lbs/A): 3 | % Control Crabgrass (crabgrass; Test 4, 14 DAT, 0.75 lbs/A): 44.4% | Control (1-9) Crabgrass (crabgrass; Test 4, 14 DAT, 0.75 lbs/A): 4 | % Control Plantain (plantain; Test 4, 7 DAT, 0.18 lbs/A): 33.3% | Control (1-9) Plantain (plantain; Test 4, 7 DAT, 0.18 lbs/A): 3 | % Control Plantain (plantain; Test 4, 7 DAT, 0.375 lbs/A): 22.2% | Control (1-9) Plantain (plantain; Test 4, 7 DAT, 0.375 lbs/A): 2 | % Control Plantain (plantain; Test 4, 7 DAT, 0.75 lbs/A): 33.3% | Control (1-9) Plantain (plantain; Test 4, 7 DAT, 0.75 lbs/A): 3 | % Control Plantain (plantain; Test 4, 14 DAT, 0.18 lbs/A): 33.3% | Control (1-9) Plantain (plantain; Test 4, 14 DAT, 0.18 lbs/A): 3 | % Control Plantain (plantain; Test 4, 14 DAT, 0.375 lbs/A): 22.2% | Control (1-9) Plantain (plantain; Test 4, 14 DAT, 0.375 lbs/A): 2 | % Control Plantain (plantain; Test 4, 14 DAT, 0.75 lbs/A): 33.3% | Control (1-9) Plantain (plantain; Test 4, 14 DAT, 0.75 lbs/A): 3
